Measured values reported in US5684020A, “Piperazine, piperidine and 1,2,5,6-tetrahydropyridine” (Adir et Compagnie, priority 1995, dated 1997).

Key:
[1] = Induction of catalepsy in the rat; conditions: in vivo, sc, 1 hour after injection, 50% of maximum 30 seconds
Description: 3. Induction of catalepsy in the rat
The acute administration of "typical" antipsychotics to an animal induces catalepsy, that is to say the maintenance of the animal in an often abnormal posture which has been imposed upon it by the experimenter (Waldmeier, 1979). The evaluation of the cataleptogenic properties of a product in the rat thus makes it possible to know whether that product, administered to man, will or will not risk causing an extrapyramidal-type syndrome.
Test: The animals are placed in individual cages and food is withdrawn the day before the test but water taken as desired. The catalepsy test comprises placing each rear paw of the animal on the front paw of the same side and measuring the time (seconds) that the animal remains in that "crossed paws" position (maximum 30 seconds). Each animal is subjected to 3 successive tests (one every two minutes), the animal being removed from its cage and placed on the work surface. Those tests are carded out 1 hour after the subcutaneous injection or oral administration of the product or its solvent. The average value of 3 tests represents the duration of the catalepsy (seconds) for each animal. There are 5 or 6 rats per experimental group.
Statistical analysis: The effect of the product on the duration of the catalepsy is evaluated by an ANOVA, followed by a Dunnett's test, with the probability p<0.05. […]

[2] = system: aggressiveness in isolated mice; experiment: Test of aggressiveness in isolated mice; type: in vivo, male CD mice; conditions: Mus musculus, sc; 30 minutes before test; read-out: ID50 (dose reducing by half number or duration of attacks)
Description: 2. Test of aggressiveness in isolated mice
This test allows the evaluation of the intraspecies anti-aggressive activity of a product in mice that have been kept in isolation for several months.
Animals: The test uses male CD mice (Charles River) weighing from 22 to 25 g when they arrive at the animal house. On their arrival, the animals are isolated in individual cages made of opaque black polycarbonate (23×14×13 cm) with a grill lid, and are housed for a prolonged period (approximately 6 months) in the experimentation room.
Selection of pairs of mice: The selection of aggressive pairs of mice that will be used chronically in the study commences after the animals have been isolated for one month. […]
Test: The test takes place once a week. […] The latent period (in seconds) of the first attack and the number and total duration (in seconds) of the attacks are recorded. […]
Statistical analysis: The effects of a product on aggressiveness are evaluated by comparing the number and the duration of the attacks by the pairs of mice that have received the product (treated groups) with those obtained with the pairs that have received the solvent (control group) by using a variance analysis (ANOVA) followed by a Dunnett's test, with the probability p<0.05. […]

[3] = system: Verticalisation induced by apomorphine; experiment: Verticalisation induced by apomorphine in the mouse; type: in vivo; conditions: sc, 0.5 h, s.c., apomorphine 0.75 mg/kg s.c. 30 minutes later, read-out: ID50 (dose reducing by half the average verticalisation score)
Protocol: 1. Verticalisation induced by apomorphine (0.75 mg/kg, s.c.) in the mouse
This test, described by Protais et al (Psychopharmacologie, 1976, 50, 1-6) allows the evaluation of the dopaminergic antagonist activity of possible antipsychotic products. A mouse to which apomorphine has been administered and which has been placed in a cage comprising vertical bars, remains most of the time immobile at the top of the cage clinging by its 4 paws to the bars. That verticalisation behaviour is blocked if a dopaminergic antagonist product has been administered before the apomorphine.
Test: After the subcutaneous (s.c.) administration of the product or solvent (control group), the mouse is placed in a cylindrical barred cage (14 cm diam.×14 cm h) having vertical bars. Thirty minutes later, the animal receives the apomorphine dose (0.75 mg/kg, s.c.). […]
Statistical analysis: The effect of the product on verticalisation is evaluated by comparing the scores obtained for each group that has been administered a dose of product with those obtained for the control group (solvent) using a Mann and Whitney U test, with a probability p<0.05. […]

dopamine turnover = experiment: Dopamine turnover (DOPAC/dopamine ratio) in rat brain structures; type: in vivo, Male Wistar rats; conditions: regions studied: frontal cortex, nucleus accumbens, olfactory tubercles, striatum
Protocol: by dopamine synthesis (turnover) studies in the following structures: frontal cortex (mesocortical pathway), nucleus accumbens and olfactory tubercle (mesolimbic pathway), striatum (nigrostriatal pathway). The functional dopaminergic antagonists cause an increase in the synthesis of dopamine in those structures.
Male Wistar rats (Iffa Credo, Illskirchen France) weighing 250 to 280 g are kept in a 12h/12h light/darkness cycle (light switched on at 7.30 a.m.). They have free access to water and food; the laboratory temperature is 21°±1° C. and the humidity is 60±5%.
Dopamine turnover: The effect of the products of the invention and the reference product on dopamine turnover is determined after subcutaneous injection. After a period of 30 minutes, the rats are decapitated and the brain is dissected in order to extract the striatum, the nucleus accumbens, the frontal cortex and the olfactory tubercles. The tissues are homogenised in 500 μl of HClO4 0.1M containing 0.5% Na2 S2 O5 and 0.5% EDTA Na2 and centrifuged at 15,000 g for 15 minutes at 4° C. The supernatants are diluted in the mobile phase and injected into an HPLC column (Hypersil ODS 5 μm, C18, 150×4.6mm, Thermo Separation Products, Les Ulis, France) thermostatically controlled at 25° C. […]

schizophrenia patients = conditions: Davis et al., 1983; cited from earlier work

Structure (SMILES) | ED50 at 1 h [1] | ED50 [2] | ED50 [3] | effect on dopaminergic transmission (in words) (dopamine turnover) | extrapyramidal symptoms (in words) (schizophrenia patients)
c1ccc2c(c1)CC(CN1CCN(c3ccc4c(c3)OCCO4)CC1)C2 [Example 6, 4-(2,3-Dihydrobenzo-1,4-dioxin-6-yl)-1-(indan-2-ylmethyl)piperazine] | > 80 mg/kg | 0.99 mg/kg | 3.88 mg/kg | – | –
O=C(CCCN1CCC(O)(c2ccc(Cl)cc2)CC1)c1ccc(F)cc1 [Haloperidol] | 0.146 mg/kg | – | – | significant effect on dopaminergic transmission in each of the regions studied | often brings about the appearance of undesirable extrapyramidal symptoms (EPS) of the Parkinson's type
CN(C)CCCN1c2ccccc2Sc2ccc(Cl)cc21 [chlorpromazine] | – | – | – | – | often brings about the appearance of undesirable extrapyramidal symptoms (EPS) of the Parkinson's type
CN1CCN(C2=Nc3cc(Cl)ccc3Nc3ccccc32)CC1 [clozapine] | – | – | – | – | cause few extrapyramidal symptoms
